Results published in BigSolDB 2.1.

COC(=O)Nc1nc2ccc(S(=O)c3ccccc3)cc2[nH]1 (configuration not stated)
solubility (mole fraction)
Details | 278.15 K | 283.15 K | 288.15 K | 293.15 K | 298.15 K | 303.15 K | 308.15 K | 313.15 K | 318.15 K | 323.15 K
in 2-ethoxyethanol | 0.00043 | 0.000518 | 0.000583 | 0.000682 | 0.00079 | 0.000908 | 0.00104 | 0.00118 | 0.00132 | 0.00144
in 2-methoxyethanol | 0.000687 | 0.000777 | 0.000887 | 0.00104 | 0.00118 | 0.00133 | 0.0015 | 0.00173 | 0.00191 | 0.00215
in 2-propoxyethanol | 0.000338 | 0.000402 | 0.000476 | 0.000554 | 0.000629 | 0.000727 | 0.000802 | 0.0009 | 0.00103 | 0.00117
in DMAc | 0.00381 | 0.00471 | 0.00576 | 0.00659 | 0.00821 | 0.00976 | 0.0112 | 0.0125 | 0.0147 | 0.017
in DMF | 0.00284 | 0.00329 | 0.00363 | 0.00408 | 0.00454 | 0.00502 | 0.00576 | 0.00632 | 0.00718 | 0.00796
in DMSO | – | – | – | 0.00925 | 0.0109 | 0.012 | 0.0138 | 0.0157 | 0.0175 | 0.0194
in diglyme | 0.00015 | 0.000174 | 0.000203 | 0.000241 | 0.00028 | 0.000321 | 0.000362 | 0.000406 | 0.000454 | 0.000502
in methanol | 8.35e-05 | 9.72e-05 | 0.00012 | 0.000148 | 0.00017 | 0.000201 | 0.000242 | 0.000287 | 0.000332 | 0.000389
